Assay results reported in publication PMC6154605, “Multi-Anti-Parasitic Activity of Arylidene Ketones and Thiazolidene Hydrazines against Trypanosoma cruzi and Leishmania spp” (Molecules : A Journal of Synthetic Chemistry and Natural …, 2017).
Read-outs that look alike come from different tables or passages of the source. Marks after values point to notes of the source that are not given here.

Experiments:
[1] = test system: L. braziliensis promastigotes; experiment: Leishmanicidal activity on promastigotes, resazurin; type: cell-based, Leishmania braziliensis; conditions: for IC50: Leishmania braziliensis, 48 h, read-out: IC50 ± SD Promastigotes L. braziliensis; for SI NCTC/ L. braziliensis: ratio IC50 mammalian cell / IC50 parasite (promastigotes)
Source text: (§1) We initially selected compounds previously reported to have anti-T. cruzi activity from our chemical library to evaluate their leishmanicidal activity. […]. To evaluate their activity in Leishmania spp., we performed a phenotypic screening using the promastigote form of L. infantum (MHOM/FR/91/LEM-2259) and L. braziliensis ([…]) (Table 1A for the thiazolidenehydrazine derivate and Table 1B for the arylideneketones family).
(§2) A culture of L. braziliensis (MHOM/BR/75/M2904) and L. infantum (MHOM/FR/91/LEM2259V) was obtained from the Facultad de Farmacia (Universidad Complutense, Madrid, Spain). The maintenance of the strains, the form of cultivation and the isolation of the shape of the promastigote were performed following the procedures described by Roldos et al.. The promastigotes were grown at 22 °C in Schneider’s Drosophila medium supplemented with 20% FBS. The assay was performed using a modification of a previous method. Promastigotes (2 × 10^6 parasites/well) were cultivated in 96-well plastic plates. Compounds were dissolved in dimethylsulfoxide (DMSO). Different dilutions of the compounds with a final volume up to 200 µL were added. After 48 h at 26 °C, 20 µL of a 2 mM resazurin solution were added, and the oxidation-reduction was quantified at 570 and 600 nm. The solution of resazurin was prepared at 2.5 mM in phosphate buffered solution (PBS), pH 7.4, and filtered through 0.22-µm membranes prior to use. All tests were carried out in triplicate. Resazurin sodium salt was obtained from Sigma-Aldrich (St. Louis, MO, USA) and stored at 4 °C protected from light. The efficacy of each compound was estimated by calculating the IC50 values. Each antiproliferative experiment was done in duplicate, and each concentration was tested in triplicate.

[2] = test system: L. infantum promastigotes; experiment: as above; type: cell-based, Leishmania infantum; conditions: for IC50: Leishmania infantum, 48 h, read-out: IC50 ± SD Promastigotes L. infantum; for SI NCTC/ L. infantum: ratio IC50 mammalian cell / IC50 parasite (promastigotes)
Source text: as §1, §2

[3] = test system: NCTC929 fibroblasts; experiment: Nonspecific cytotoxicity on fibroblasts, resazurin; type: cell-based; conditions: NCTC-929, 24 h; read-out: IC50 ± SD Fibroblast NCTC929
Procedure: To establish the selectivity of the compounds against the parasites, nonspecific cytotoxicity against mammalian cells, using J774.1 murine macrophages and fibroblast NCTC929, was studied for the most relevant derivatives. The selectivity indexes were calculated as the ratio between cytotoxicity for mammalian cells and the anti-parasitic activity (Table 2).
NCTC-Clone 929 were grown in minimal essential medium (Sigma) supplemented with 10% heat-inactivated FBS, penicillin G (100 U/mL) and streptomycin (100 µg/mL). Cell cultures were maintained at 37 °C in a humidified 5% CO2 atmosphere. The procedure for cell viability measurement was evaluated with resazurin by a colorimetric method. The cells were plated in 96 microtiter plates at 3.00 × 10^4 cells/well in 100 µL growth medium. The cells were grown overnight at 37 °C, 5% CO2. Thereafter, the medium was removed, and the compounds were added to 200 µL of medium for 24 h. After incubation, 20 µL of a 2 mM resazurin solution were added to each well. The plates were incubated for 3 h to allow optimal oxidation-reduction. The reduction of resazurin was determined by dual wavelength absorbance measurement at 490 and 595 nm. The background was subtracted. Each concentration was assayed three times. Medium and drug controls were used in each test as blanks.

[4] = test system: T. cruzi epimastigotes, Tulahuen 2 strain (genotype TcVI); conditions: cited from earlier work; for SI J774.1/ T. cruzi: ratio IC50 mammalian cell / IC50 parasite (epimastigotes); for IC50: read-out: IC50 ± SD Epimastigotes T. cruzi
[5] = test system: J774.1 murine macrophages; conditions: J774.1; read-out: IC50 ± SD Murine Macrophages; cited from earlier work
[6] = test system: T. cruzi epimastigotes, Tulahuen 2 strain (genotype TcVI); experiment: In vitro anti-T. cruzi activity, growth inhibition of epimastigotes; type: cell-based, Trypanosoma cruzi; conditions: for IC50: Trypanosoma cruzi, TULAHUEN; for Trypanocidal activity on T. cruzi in words: molecular stripping, epimastigotes
Procedure: For the in vitro anti-T. cruzi activity, we used epimastigotes of the Tulahuen 2 strain (genotype TcVI) grown in an axenic milieu (BHI-Tryptose). Cells from a 5–7-day-old culture were inoculated in fresh culture milieu to give an initial concentration of 1.00 × 10^6 cells/mL. The absorbance at 600 nm of the cells in culture was measured every day. At Day 5, the milieu was inoculated with different quantities of the compounds from a stock solution in DMSO (DMSO concentration in the culture milieu never exceeded 0.4%). The control was made in the presence of 0.4% DMSO and in the absence of compounds. Each concentration of compound was evaluated in duplicate. At Day 5, the absorbance of the culture was measured and related to the control. […] Each antiproliferative experiment was done in duplicate, and each concentration was tested in triplicate.

[7] = Tulahuen 2 strain, read-out: IC50 ± SD Epimastigotes T. cruzi
[8] = Figure 4, molecular stripping of HIT1, read-out: Effect of structural change on trypanocidal activity (emoticon code)

Compound	IC50 [1] [µM]	SI NCTC/ L. braziliensis [1]	IC50 [2] [µM]	SI NCTC/ L. infantum [2]	IC50 [3] [mM]	SI J774.1/ T. cruzi [4]	IC50 [4] [µM]	IC50 [5] [µM]	IC50 [6, 7] [µM]	IC50 [6, 8] [µM]	Trypanocidal activity on T. cruzi in words [6]	melting point [°C]
O=C(/C=C/c1ccco1)/C=C/c1ccco1 [EA134]	10 ± 6	11	6 ± 2	19	0.114 ± 0.002	5 ^c	24 ± 2	115 ± 6				
O=C(/C=C/C=C/c1ccccc1)/C=C/C=C/c1ccccc1 [EA139]	> 25		> 25						11 ± 1			
O=C(/C=C/C=C/c1cccs1)/C=C/C=C/c1cccs1 [EA141]	36 ± 3	47	19 ± 5	90	1.7 ± 0.04	1 ^c	12.6 ± 1.4	10 ± 2				
O=C1/C(=C/c2ccccc2)CCC/C1=C\c1ccccc1 [EA142]	4.2 ± 0.7		9.6 ± 0.9				5.1 ± 0.3					
O=C1/C(=C/C=C/c2ccccc2)CCC/C1=C\C=C\c1ccccc1 [EA143]	> 25		> 25						14 ± 3			
O=C(/C=C/C=C/C=C/c1cccs1)/C=C/C=C/C=C/c1cccs1 [EA152]	> 100		30 ± 8						> 25			
O=C1/C(=C/c2ccco2)CCC/C1=C\c1ccco1 [EA154]	> 25		> 25						7 ± 2			
O=C1/C(=C/C=C/c2cccs2)CCC/C1=C\C=C\c1cccs1 [EA156]	> 100		16 ± 3	124	1.98 ± 0.02	33 ^c	0.6 ± 0.2	20 ± 1				
O=C1/C(=C/C=C/c2cccs2)CC/C1=C\C=C\c1cccs1 [EA160]	> 100		11 ± 3	446	4.909 ± 0.036	375 ^c	0.04 ± 0.01	15 ± 1				
O=C1/C(=C/C=C/c2ccco2)CC/C1=C\C=C\c1ccco1 [EA161]	18 ± 4	42	16 ± 4	47	0.756 ± 0.017	4 ^c	5.4 ± 1.6	19 ± 2				
Cc1ccc(/C=C/C=N/N2CCN(CC=Cc3ccccc3)CC2)o1 [GAT0413, (E)-4-cinnamyl-N-((E)-3-(5-methylfuran-2-yl)allylidene)piperazin-1-amine]	> 25		> 25						12 ± 2	5 to 25	the activity was restored	
C=CCn1c(C(=O)CNN2CCN(CC=Cc3ccccc3)CC2)cs/c1=N/N=C\C=C\c1ccco1 [GAT0613, 1-((Z)-3-allyl-2-((E)-((E)-3-(furan-2-yl)allylidene)hydrazono)-2,3-dihydrothiazol-4-yl)-2-((4-cinnamylpiperazin-1-yl)amino)ethanone]	25		> 25						11 ± 4		the activity was lost	150 to 153
O=C(C=Cc1ccco1)N1CCN(CC=Cc2ccccc2)CC1 [GAT0804]										> 25		
